Key:
[1] = target: T1, Solute carrier organic anion transporter family member 1A1 (Rattus norvegicus, UniProt P46720); assay: TP_TRANSPORTER: inhibition of Ouabain uptake (Ouabain: 100 uM, Estrone-3-glucuronide: 100 uM) in Xenopus laevis oocytes; format: functional, cell-based, Oocyte; set-up: scale not given: the % may be the effect or the level left; details: probe Ouabain (100 uM), read-out: Activity
T1 sequence (P46720 whole entry): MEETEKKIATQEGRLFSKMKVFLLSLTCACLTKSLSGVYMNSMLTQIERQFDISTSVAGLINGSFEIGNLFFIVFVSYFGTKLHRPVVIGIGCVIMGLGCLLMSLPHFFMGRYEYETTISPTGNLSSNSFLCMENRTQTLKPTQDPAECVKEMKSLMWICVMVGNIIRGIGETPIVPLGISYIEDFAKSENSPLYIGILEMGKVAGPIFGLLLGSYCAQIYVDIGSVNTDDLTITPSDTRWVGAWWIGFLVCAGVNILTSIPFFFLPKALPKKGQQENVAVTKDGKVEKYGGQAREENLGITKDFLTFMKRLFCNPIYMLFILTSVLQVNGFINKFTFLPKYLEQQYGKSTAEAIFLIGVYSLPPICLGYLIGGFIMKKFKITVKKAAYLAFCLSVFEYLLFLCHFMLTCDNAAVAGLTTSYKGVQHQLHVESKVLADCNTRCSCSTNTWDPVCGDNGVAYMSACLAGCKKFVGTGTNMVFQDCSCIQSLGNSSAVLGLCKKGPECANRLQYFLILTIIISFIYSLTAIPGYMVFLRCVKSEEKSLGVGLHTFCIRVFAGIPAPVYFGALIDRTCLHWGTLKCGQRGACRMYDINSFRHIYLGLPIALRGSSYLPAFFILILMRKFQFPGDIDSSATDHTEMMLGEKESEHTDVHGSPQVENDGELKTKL

[2] = target: T1, Solute carrier organic anion transporter family member 1A1; assay: TP_TRANSPORTER: inhibition of Ouabain uptake (Ouabain: 100 uM, Estradiol-3-glucuronide: 100 uM) in Xenopus laevis oocytes; format: functional, cell-based, Oocyte; set-up: scale not given: the % may be the effect or the level left; details: probe Ouabain (100 uM), read-out: Activity
[3] = target: T1, Solute carrier organic anion transporter family member 1A1; assay: TP_TRANSPORTER: inhibition of Ouabain uptake (Ouabain: 100 uM, Aldosterone: 100 uM) in Xenopus laevis oocytes; format: functional, cell-based; set-up: scale not given: the % may be the effect or the level left; details: oocyte
[4] = target: T1, Solute carrier organic anion transporter family member 1A1; assay: TP_TRANSPORTER: inhibition of Ouabain uptake (Ouabain: 100 uM, Corticosterone: 100 uM) in Xenopus laevis oocytes; format: functional, cell-based; set-up: scale not given: the % may be the effect or the level left; details: oocyte
[5] = target: T1, Solute carrier organic anion transporter family member 1A1; assay: (§1) TP_TRANSPORTER: uptake in Xenopus laevis oocytes; format: functional, cell-based, Oocyte
[6] = target: T1, Solute carrier organic anion transporter family member 1A1; assay: TP_TRANSPORTER: inhibition of Ouabain uptake (Ouabain: 100 uM, Dexamethasone: 100 uM) in Xenopus laevis oocytes; format: functional, cell-based, Oocyte; set-up: scale not given: the % may be the effect or the level left; details: probe Ouabain (100 uM), read-out: Activity
[7] = target: T1, Solute carrier organic anion transporter family member 1A1; assay: TP_TRANSPORTER: inhibition of Ouabain uptake (Ouabain: 100 uM, Digitoxin: 100 uM) in Xenopus laevis oocytes; format: functional, cell-based, Oocyte; set-up: scale not given: the % may be the effect or the level left; details: probe Ouabain (100 uM), read-out: Activity
[8] = target: T1, Solute carrier organic anion transporter family member 1A1; assay: TP_TRANSPORTER: inhibition of Ouabain uptake (Ouabain: 100 uM, Digoxigenin: 100 uM) in Xenopus laevis oocytes; format: functional, cell-based, Oocyte; set-up: scale not given: the % may be the effect or the level left; details: probe Ouabain (100 uM), read-out: Activity
[9] = target: T1, Solute carrier organic anion transporter family member 1A1; assay: TP_TRANSPORTER: inhibition of Ouabain uptake (Ouabain: 100 uM, E217betaG: 100 uM) in Xenopus laevis oocytes; format: functional, cell-based, Oocyte; set-up: scale not given: the % may be the effect or the level left; details: probe Ouabain (100 uM), read-out: Activity
[10] = target: T1, Solute carrier organic anion transporter family member 1A1; assay: TP_TRANSPORTER: inhibition of Ouabain uptake (Ouabain: 100 uM, beta-Estradiol: 100 uM) in Xenopus laevis oocytes; format: functional, cell-based, Oocyte; set-up: scale not given: the % may be the effect or the level left; details: probe Ouabain (100 uM), read-out: Activity
[11] = target: T1, Solute carrier organic anion transporter family member 1A1; assay: TP_TRANSPORTER: inhibition of Ouabain uptake (Ouabain: 100 uM, E1S: 100 uM) in Xenopus laevis oocytes; format: functional, cell-based; set-up: scale not given: the % may be the effect or the level left; details: oocyte
[12] = target: T1, Solute carrier organic anion transporter family member 1A1; assay: TP_TRANSPORTER: inhibition of Ouabain uptake (Ouabain: 100 uM, Cortisol: 100 uM) in Xenopus laevis oocytes; format: functional, cell-based, Oocyte; set-up: scale not given: the % may be the effect or the level left; details: probe Ouabain (100 uM), read-out: Activity
[13] = target: T1, Solute carrier organic anion transporter family member 1A1; assay: TP_TRANSPORTER: inhibition of Ouabain uptake (Ouabain: 100 uM, ICG: 100 uM) in Xenopus laevis oocytes; format: functional, cell-based; set-up: scale not given: the % may be the effect or the level left; details: oocyte
[14] = target: T1, Solute carrier organic anion transporter family member 1A1; assay: TP_TRANSPORTER: inhibition of Ouabain uptake (Ouabain: 100 uM, Prednisolone: 100 uM) in Xenopus laevis oocytes; format: functional, cell-based, Oocyte; set-up: scale not given: the % may be the effect or the level left; details: probe Ouabain (100 uM), read-out: Activity
[15] = target: T1, Solute carrier organic anion transporter family member 1A1; assay: TP_TRANSPORTER: inhibition of Ouabain uptake (Ouabain: 100 uM, Prednisone: 100 uM) in Xenopus laevis oocytes; format: functional, cell-based; set-up: scale not given: the % may be the effect or the level left; details: oocyte
[16] = target: T1, Solute carrier organic anion transporter family member 1A1; assay: TP_TRANSPORTER: inhibition of Ouabain uptake (Ouabain: 100 uM, Rose bengal: 100 uM) in Xenopus laevis oocytes; format: functional, cell-based; set-up: scale not given: the % may be the effect or the level left; details: oocyte
[17] = target: T1, Solute carrier organic anion transporter family member 1A1; assay: TP_TRANSPORTER: inhibition of Ouabain uptake (Ouabain: 100 uM, BSP: 100 uM) in Xenopus laevis oocytes; format: functional, cell-based, Oocyte; set-up: scale not given: the % may be the effect or the level left; details: probe Ouabain (100 uM), read-out: Activity
[18] = target: T1, Solute carrier organic anion transporter family member 1A1; assay: TP_TRANSPORTER: inhibition of Ouabain uptake (Ouabain: 100 uM, Testosterone: 100 uM) in Xenopus laevis oocytes; format: functional, cell-based, Oocyte; set-up: scale not given: the % may be the effect or the level left; details: probe Ouabain (100 uM), read-out: Activity
[19] = substrate: C[C@]12CC[C@@H]3c4ccc(OS(=O)(=O)O)cc4CC[C@H]3[C@@H]1CCC2=O; assay: as §1; format: functional, cell-based, Oocyte
[20] = substrate: C[C@]12CCC(=O)C=C1CC[C@@H]1[C@@H]2[C@@H](O)C[C@@]2(C)[C@H]1CC[C@]2(O)C(=O)CO; assay: as §1; format: functional, cell-based, Oocyte
[21] = substrate: C[C@]12CC[C@@H]3c4ccc(O)cc4CC[C@H]3[C@@H]1CC[C@@H]2O[C@@H]1O[C@H](C(=O)O)[C@@H](O)[C@H](O)[C@H]1O; assay: as §1; format: functional, cell-based, Oocyte
[22] = substrate: C[C@]12CCC(=O)C=C1CC[C@@H]1[C@@H]2[C@@H](O)C[C@]2(C=O)[C@@H](C(=O)CO)CC[C@@H]12; assay: as §1; format: functional, cell-based, Oocyte

## C[C@]12CC[C@@H]3c4ccc(O[C@@H]5O[C@H](C(=O)O)[C@@H](O)[C@H](O)[C@H]5O)cc4CC[C@H]3[C@@H]1CCC2=O
[1]
  activity at 100 µM: 24%

## C[C@]12CC[C@@H]3c4ccc(O[C@@H]5O[C@H](C(=O)O)[C@@H](O)[C@H](O)[C@H]5O)cc4CC[C@H]3[C@@H]1CC[C@@H]2O
[2]
  activity at 100 µM: 27%

## C[C@]12CCC(=O)C=C1CC[C@@H]1[C@@H]2[C@@H](O)C[C@]2(C=O)[C@@H](C(=O)CO)CC[C@@H]12 [ALDOSTERONE]
[3]
  Activity: 10%

## C[C@]12C[C@H](O)[C@H]3[C@@H](CCC4=CC(=O)CC[C@@]43C)[C@@H]1CC[C@@H]2C(=O)CO [CORTICOSTERONE]
[4]
  Activity: 15%

## C[C@@H]1C[C@H]2[C@@H]3CCC4=CC(=O)C=C[C@]4(C)[C@@]3(F)[C@@H](O)C[C@]2(C)[C@@]1(O)C(=O)CO [DEXAMETHASONE]
[5]; oocyte
  Activity: substrate [+]
[6]
  activity at 100 µM: 26%

## C[C@H]1O[C@@H](O[C@H]2[C@@H](O)C[C@H](O[C@H]3[C@@H](O)C[C@H](O[C@H]4CC[C@@]5(C)[C@H](CC[C@@H]6[C@@H]5CC[C@]5(C)[C@@H](C7=CC(=O)OC7)CC[C@]65O)C4)O[C@@H]3C)O[C@@H]2C)C[C@H](O)[C@@H]1O [DIGITOXIN]
[7]
  activity at 100 µM: 29%

## C[C@]12CC[C@H](O)C[C@H]1CC[C@@H]1[C@@H]2C[C@@H](O)[C@]2(C)[C@@H](C3=CC(=O)OC3)CC[C@]12O [DIGOXIGENIN]
[8]
  activity at 100 µM: 19%

## C[C@]12CC[C@@H]3c4ccc(O)cc4CC[C@H]3[C@@H]1CC[C@@H]2O[C@@H]1O[C@H](C(=O)O)[C@@H](O)[C@H](O)[C@H]1O [ESTRADIOL 17B GLUCURONIDE]
[9]
  activity at 100 µM: 16%

## C[C@]12CC[C@@H]3c4ccc(O)cc4CC[C@H]3[C@@H]1CC[C@@H]2O [ESTRADIOL]
[10]
  activity at 100 µM: 40%

## C[C@]12CC[C@@H]3c4ccc(OS(=O)(=O)O)cc4CC[C@H]3[C@@H]1CCC2=O [ESTRONE SULFURIC ACID]
[11]
  Activity: 10%

## C[C@]12CCC(=O)C=C1CC[C@@H]1[C@@H]2[C@@H](O)C[C@@]2(C)[C@H]1CC[C@]2(O)C(=O)CO [HYDROCORTISONE]
[12]
  activity at 100 µM: 19%

## CC1(C)C(/C=C/C=C/C=C/C=C2/N(CCCCS(=O)(=O)[O-])c3ccc4ccccc4c3C2(C)C)=[N+](CCCCS(=O)(=O)[O-])c2ccc3ccccc3c21.[Na+] [INDOCYANINE GREEN]
[13]
  Activity: 6%

## C[C@@H]1O[C@@H](O[C@H]2C[C@@H](O)[C@]3(CO)[C@H]4[C@H](O)C[C@]5(C)[C@@H](C6=CC(=O)OC6)CC[C@]5(O)[C@@H]4CC[C@]3(O)C2)[C@H](O)[C@H](O)[C@H]1O [OUABAIN]
[5]; Xenopus laevis oocytes
  Km: 1700 µM

## C[C@]12C=CC(=O)C=C1CC[C@@H]1[C@@H]2[C@@H](O)C[C@@]2(C)[C@H]1CC[C@]2(O)C(=O)CO [PREDNISOLONE]
[14]
  activity at 100 µM: 40%

## C[C@]12C=CC(=O)C=C1CC[C@@H]1[C@@H]2C(=O)C[C@@]2(C)[C@H]1CC[C@]2(O)C(=O)CO [PREDNISONE]
[15]
  Activity: 34%

## O=C([O-])c1c(Cl)c(Cl)c(Cl)c(Cl)c1-c1c2cc(I)c(=O)c(I)c-2oc2c(I)c([O-])c(I)cc12.[Na+].[Na+] [ROSE BENGAL SODIUM]
[16]
  Activity: 4%

## O=C1OC(c2ccc(O)c(S(=O)(=O)O)c2)(c2ccc(O)c(S(=O)(=O)O)c2)c2c(Br)c(Br)c(Br)c(Br)c21 [SULFOBROMOPHTHALEIN SODIUM]
[17]
  activity at 100 µM: 6%

## C[C@]12CC[C@H]3[C@@H](CCC4=CC(=O)CC[C@@]43C)[C@@H]1CC[C@@H]2O [TESTOSTERONE]
[18]
  activity at 100 µM: 16%

B1: Solute carrier organic anion transporter family member 1A1 (Rattus norvegicus) (protein)
chain: MEETEKKIATQEGRLFSKMKVFLLSLTCACLTKSLSGVYMNSMLTQIERQFDISTSVAGLINGSFEIGNLFFIVFVSYFGTKLHRPVVIGIGCVIMGLGCLLMSLPHFFMGRYEYETTISPTGNLSSNSFLCMENRTQTLKPTQDPAECVKEMKSLMWICVMVGNIIRGIGETPIVPLGISYIEDFAKSENSPLYIGILEMGKVAGPIFGLLLGSYCAQIYVDIGSVNTDDLTITPSDTRWVGAWWIGFLVCAGVNILTSIPFFFLPKALPKKGQQENVAVTKDGKVEKYGGQAREENLGITKDFLTFMKRLFCNPIYMLFILTSVLQVNGFINKFTFLPKYLEQQYGKSTAEAIFLIGVYSLPPICLGYLIGGFIMKKFKITVKKAAYLAFCLSVFEYLLFLCHFMLTCDNAAVAGLTTSYKGVQHQLHVESKVLADCNTRCSCSTNTWDPVCGDNGVAYMSACLAGCKKFVGTGTNMVFQDCSCIQSLGNSSAVLGLCKKGPECANRLQYFLILTIIISFIYSLTAIPGYMVFLRCVKSEEKSLGVGLHTFCIRVFAGIPAPVYFGALIDRTCLHWGTLKCGQRGACRMYDINSFRHIYLGLPIALRGSSYLPAFFILILMRKFQFPGDIDSSATDHTEMMLGEKESEHTDVHGSPQVENDGELKTKL
[19]
  Km: 4.5 µM
[20]
  Km: 13 µM
[21]
  Km: 3 µM
[22]
  Km: 0.015 µM

From ChEMBL document CHEMBL2074160, “Polyspecific drug and steroid clearance by an organic anion transporter of mammalian liver” (J Pharmacol Exp Ther, 1996)
